Reference: patent US7534809B2, “Phospho-indoles as HIV inhibitors” (priority 2004, dated 2009)
Where two headings read alike, the source gives them in different places.

Legend:
[1] = molecular target: HIV reverse transcriptase WT (Human immunodeficiency virus type 1 group M subtype B, UniProt P03366); test: Enzyme assay, reverse transcriptase WT; format: biochemical, HIV-1
Source text: (§1) As used herein, “reverse transcriptase” or “RT” refers to an enzyme having a non-nucleoside inhibitory binding site similar to that of HIV-1 RT, and to which ligands, which bind the composite binding pocket of the compounds of the present invention, also will bind. One measure of RT activity is viral replication. A measure of HIV-1 viral replication is the automated assay that utilizes MTT, as described earlier in this specification. Another measure is the p24 core antigen enzyme immunoassay, such as, for example, the assay commercially available from Coulter Corporation/Immunotech, Inc.® (Westbrook, Mich.). Another means for measuring RT activity is by assaying recombinant HIV-1 reverse transcriptase activity, such as, for example, by using the Quan-T-RT™ assay system commercially available from Amersham® (Arlington Heights, Ill.) and as described by Bosworth et al., Nature, 1989, 341:167-168.
(§2) The 3-phosphoindoles can be assessed for their ability to inhibit reverse transcriptase activity in vitro according to standard screening methods.

[2] = molecular target: HIV reverse transcriptase Y181C (Human immunodeficiency virus type 1 group M subtype B, UniProt P03366, Y780C); test: Enzyme assay, reverse transcriptase Y181C; format: biochemical, HIV-1
Source text: as §1, §2

[3] = molecular target: HIV reverse transcriptase K103N (Human immunodeficiency virus type 1 group M subtype B, UniProt P03366, K702N); test: Enzyme assay, reverse transcriptase K103N; format: biochemical, HIV-1
Source text: as §1, §2

[4] = molecular target: HIV reverse transcriptase K103N/Y181C (Human immunodeficiency virus type 1 group M subtype B, UniProt P03366, K702N/Y780C); test: Enzyme assay, reverse transcriptase K103N/Y181C; format: biochemical, HIV-1
Source text: as §1, §2

[5] = tested on: HIV BH-10 WT; test: Cell-based assay using BH-10 cells, wild type
[6] = tested on: HIV mutant strain Y181C; test: Cell-based assay using BH-10 cells, Y181C mutant
Description: (§3) In a typical embodiment, the NNRTIs display an EC50 in a mutant HIV strain of less than approximately 5, 2.5, 1 or 0.1 μM concentration. The degree of cross-resistance against a drug resistant strain of HIV is measured by assessing the EC50 of the desired oxo-pyrimidine compound in the target mutated, i.e., drug resistant, virus.
(§4) The degree of cross-resistance against a drug resistant strain of HIV can easily be measured by assessing the EC50 of the desired indole in the target mutated i.e., drug resistant, virus.

[7] = tested on: HIV mutant strain K103N/Y181C; test: Cell-based assay using BH-10 cells, K103N/Y181C mutant
Description: as §3, §4

[8] = Human immunodeficiency virus 1, read-out: EC50 WT///B, BH-10 cells, wild type
[9] = Human immunodeficiency virus 1, read-out: EC50 Y181C, BH-10 cells, Y181C mutant
[10] = Human immunodeficiency virus 1, read-out: EC50 K103N/Y181C, BH-10 cells, K103N/Y181C mutant

Row | Structure (SMILES) | IC50 [1] [nM] | IC50 [2] [nM] | IC50 [3] [nM] | IC50 [4] [nM] | EC50 [5, 8] [nM] | EC50 [6, 9] [nM] | EC50 [7, 10] [nM] | EC50 ([5]; BH-10 cells, wild type, read-out: EC50 WT///B) [nM] | EC50 ([6]; BH-10 cells, Y181C mutant, read-out: EC50 Y181C) [nM] | EC50 ([7]; BH-10 cells, K103N/Y181C mutant, read-out: EC50 K103N/Y181C) [nM]
1 | CCOP(=O)(c1ccccc1)c1c(C(N)=O)[nH]c2ccc(Cl)cc12 (stereo not drawn) [Compound 6a] | 722 | 1970 | 1630 | > 5000 | 1.2 | 13.7 | 16.4 |  |  | 
2 | CCOP(=O)(c1cc(F)cc(F)c1)c1c(C(N)=O)[nH]c2ccc(Cl)cc12 (stereo not drawn) [Compound 6ac] | 726 | 3500 | 12700 | > 5000 | 3.7 | 986 | > 1250 |  |  | 
3 | CCOP(=O)(c1ccccc1F)c1c(C(N)=O)[nH]c2ccc(Cl)cc12 (stereo not drawn) [Compound 6ad] | 433 | 4350 | 3290 | > 5000 | 0.9 | 58.3 | 17 |  |  | 
4 | CCOP(=O)(c1cc(C)cc(C)c1)c1c(C(N)=O)[nH]c2ccc(Cl)cc12 (stereo not drawn) [Compound 6b] | 1640 | 4310 | 2610 | > 5000 | 3 | 28 | 51.7 |  |  | 
5 | CCOP(=O)(c1ccc(F)cc1)c1c(C(N)=O)[nH]c2ccc(Cl)cc12 (stereo not drawn) [Compound 6c] | 3620 | > 5000 | > 5000 | > 5000 | 34.5 | > 1250 | > 1250 |  |  | 
6 | COP(=O)(c1ccccc1)c1c(C(N)=O)[nH]c2ccc(Cl)cc12 (stereo not drawn) [Compound 7ah] | 309 | 349 | 389 | 6750 | 0.4 | 4.9 | 3.4 |  |  | 
7 | COP(=O)(c1ccccc1)c1c(C(N)=O)[nH]c2ccccc12 (stereo not drawn) [Compound 7ai] | 393 | 5610 | 6590 | > 5000 | 1 | 1110 | 706 |  |  | 
8 | CCOP(=O)(c1cc(C)cc(C)c1)c1c(C(=O)NCc2ccncc2)[nH]c2ccc(Cl)cc12 (stereo not drawn) [Compound 9a] | 3410 | 4490 | 3360 | > 5000 | 11 | 57.7 | 8 |  |  | 
9 | COP(=O)(c1ccccc1)c1c(C(=O)NCc2ccncc2)[nH]c2ccc(Cl)cc12 (stereo not drawn) [Compound 18ar] | 156 | 489 | 930 | 1660 | 1 | 5.6 | 3.9 |  |  | 
10 | COP(=O)(c1cc(C)cc(C)c1)c1c(C(=O)NCCc2cc[n+]([O-])cc2)[nH]c2ccc(Cl)cc12 (stereo not drawn) [Compound 22c] |  |  |  |  | 2.8 | 10.1 | 26.8 |  |  | 
11 | COP(=O)(c1cc(C)cc(C)c1)c1c(C(=O)NCc2cc[n+]([O-])cc2F)[nH]c2ccc(Cl)cc12 (stereo not drawn) [Compound 22d] |  |  |  |  | 2.9 | 1.5 | 6.7 |  |  | 
12 | COP(=O)(c1cc(C)cc(C)c1)c1c(C(=O)NCc2cnc[n+]([O-])c2)[nH]c2ccc(Cl)cc12 (stereo not drawn) [Compound 22g] |  |  |  |  | 2.1 | 10.7 | 3 |  |  | 
13 | CCc1cc(C)cc(P(=O)(OC)c2c(C(=O)NCc3ccc[n+]([O-])c3)[nH]c3ccc(Cl)cc23)c1 (stereo not drawn) [Compound 22h] |  |  |  |  | 1.6 | 5.8 | 3.6 |  |  | 
14 | COP(=O)(c1cc(C)cc(C)c1)c1c(C(=O)NCc2ccc[n+]([O-])c2)[nH]c2ccc(Cl)c(F)c12 (stereo not drawn) [Compound 22j] |  |  |  |  |  |  |  | 6.8 | 9.9 | 6
15 | COP(=O)(c1cc(C)cc(C)c1)c1c(C(=O)NCc2cc[n+](C)cc2)[nH]c2ccc(Cl)cc12 (stereo not drawn) [Compound 22l] |  |  |  |  | 6.1 | 269 | 77.4 |  |  | 
